From patent US9763961B2, “Compositions that modulate the activity of estrogen receptors and estrogen-related receptors and methods for use” (CITY OF HOPE, priority 2005, dated 2017)
“Also recorded” adds a separate entry of the source.

Key:
Type in all cases: cell-based
human ERRα-1 = biological target: T1, human ERRα-1 (Homo sapiens, UniProt P11474); assay: Transient transfection luciferase assay, full length human ERRα with SF1-SV40-Luc reporter in HeLa cells; conditions: for Antagonism of constitutive activity of ERRα (in words) / IC50: HeLa cells; for Antagonism of constitutive activity of ERRα (in words): SF1 binding site reporter, FIG. 1; for IC50: pSG5-ERRα, 24 h, mean ± SD
T1 construct: expressed in transfected cells; host or cells: HeLa
T1 sequence (P11474 1-423): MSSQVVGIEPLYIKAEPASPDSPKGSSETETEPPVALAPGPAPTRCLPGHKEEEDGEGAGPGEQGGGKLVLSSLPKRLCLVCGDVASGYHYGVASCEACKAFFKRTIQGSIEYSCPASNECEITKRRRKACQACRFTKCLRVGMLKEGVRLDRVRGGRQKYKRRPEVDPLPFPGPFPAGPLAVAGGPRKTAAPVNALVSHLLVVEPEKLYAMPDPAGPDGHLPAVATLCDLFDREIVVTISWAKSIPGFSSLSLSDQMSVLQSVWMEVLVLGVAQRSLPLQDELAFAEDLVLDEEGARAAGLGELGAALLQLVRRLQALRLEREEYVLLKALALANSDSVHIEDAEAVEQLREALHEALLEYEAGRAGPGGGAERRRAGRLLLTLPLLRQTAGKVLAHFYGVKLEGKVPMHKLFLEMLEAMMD
Procedure: HeLa cells were cultured in MEM Earle's salts medium supplemented with 5% charcoal/dextran-treated fetal bovine serum. Cells were then divided and cultured in 6-well plates until 80% confluence was achieved. The cells were next transfected with 4 μg Lipofectin. An equal amount of total DNA was used in all transfections by including appropriate amounts of the empty vector, pSG5, in addition to specific amounts of pSG5-ERRα and luciferase reporter plasmids (ERRE (ERRα recognizes an ERE half site)-containing reporter and aromatase promoter I.3-containing reporter). Following an overnight incubation, the medium containing Lipofectin and DNA was removed, and the cells cultured in a growth medium containing 5% charcoal/dextran-treated fetal bovine serum with or without ligands. After a 24-hour incubation, the cells was harvested from the plates by scraping, and the luciferase activities in the cell lysates (with the same amounts of protein) was measured according to the manufacturer's instructions (Promega). All experiments were performed in triplicate.
To evaluate the functional significance of the interaction of chalcones with ERRα, we incubated these compounds with HeLa cells which were transiently transfected with human ERRα expression plasmid and a luciferase reporter plasmid containing SF1 binding site. […] In order to confirm the results above, HeLa cells were transiently transfected with GAL4-human ERRα LBD fusion expression plasmid and a luciferase reporter plasmid containing GAL4 binding site. […] Most of the compounds, however, have similar IC50 value, and have a similar potency.
Referring to FIG. 1, HeLa cells were cotransfected with pSG5-ERRα (0.5 μg) and luciferase reporter plasmid containing SF1 binding site and SV40 promoter (0.25 μg). The transfected cells were incubated with Compound No. 1-9 for 24 h. After cells were washed with 1× PBS, luciferase activity was measured. Values represent the mean±SD.

ERRβ = biological target: T2, ERRβ (Homo sapiens, UniProt O95718); assay: Transient transfection luciferase assay with pSG5-ERRb and SF1-SV40 reporter in HeLa cells; conditions: for IC50: HeLa cells, 24 h, average of at least two experiments; for Antagonistic properties on ERRb (in words): transient transfection
T2 construct: expressed in transfected cells; host or cells: HeLa
T2 sequence (O95718 1-433): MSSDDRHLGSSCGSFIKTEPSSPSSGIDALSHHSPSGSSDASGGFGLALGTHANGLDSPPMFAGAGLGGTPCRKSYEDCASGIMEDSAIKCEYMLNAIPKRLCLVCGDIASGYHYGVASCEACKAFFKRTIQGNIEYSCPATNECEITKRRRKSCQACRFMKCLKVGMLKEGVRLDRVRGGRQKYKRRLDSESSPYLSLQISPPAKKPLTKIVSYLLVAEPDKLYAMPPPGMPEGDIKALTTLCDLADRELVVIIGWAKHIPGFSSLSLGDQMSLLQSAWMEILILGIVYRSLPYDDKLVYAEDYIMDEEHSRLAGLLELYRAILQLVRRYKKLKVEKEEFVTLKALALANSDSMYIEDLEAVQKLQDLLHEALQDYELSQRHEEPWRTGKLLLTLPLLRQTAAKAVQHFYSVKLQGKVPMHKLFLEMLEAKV

ERRγ = biological target: T3, ERRγ (Homo sapiens, UniProt P62508); assay: Transient transfection luciferase assay with pSG5-ERRg and SF1-SV40 reporter in HeLa cells; conditions: for IC50: HeLa cells, 24 h, average of at least two experiments; for Antagonistic properties on ERRg (in words): transient transfection
T3 construct: expressed in transfected cells; host or cells: HeLa
T3 sequence (P62508 1-458): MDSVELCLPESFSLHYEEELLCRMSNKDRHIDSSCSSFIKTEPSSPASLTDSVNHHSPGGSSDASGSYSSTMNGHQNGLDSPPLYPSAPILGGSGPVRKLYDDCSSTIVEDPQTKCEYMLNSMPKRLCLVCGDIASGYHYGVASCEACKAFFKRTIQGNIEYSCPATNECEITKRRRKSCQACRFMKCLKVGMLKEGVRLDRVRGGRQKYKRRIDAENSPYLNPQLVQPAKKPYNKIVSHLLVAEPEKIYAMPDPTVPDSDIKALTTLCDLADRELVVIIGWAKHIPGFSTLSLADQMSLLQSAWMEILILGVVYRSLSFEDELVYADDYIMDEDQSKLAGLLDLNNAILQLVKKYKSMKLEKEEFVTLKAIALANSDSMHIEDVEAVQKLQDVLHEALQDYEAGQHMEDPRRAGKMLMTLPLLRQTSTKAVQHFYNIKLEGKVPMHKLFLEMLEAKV

ERα = biological target: T4, ERα (Homo sapiens, UniProt P03372); assay: Transient transfection luciferase assay with pSG5-ERa and ERE-SV40 reporter in HeLa cells, with 100 pM estradiol; conditions: for IC50: HeLa cells, in the presence of 100 pM of estradiol, 24 h; for Antagonistic properties on ERa (in words): transient transfection
T4 construct: expressed in transfected cells; host or cells: HeLa
T4 sequence (P03372 1-595): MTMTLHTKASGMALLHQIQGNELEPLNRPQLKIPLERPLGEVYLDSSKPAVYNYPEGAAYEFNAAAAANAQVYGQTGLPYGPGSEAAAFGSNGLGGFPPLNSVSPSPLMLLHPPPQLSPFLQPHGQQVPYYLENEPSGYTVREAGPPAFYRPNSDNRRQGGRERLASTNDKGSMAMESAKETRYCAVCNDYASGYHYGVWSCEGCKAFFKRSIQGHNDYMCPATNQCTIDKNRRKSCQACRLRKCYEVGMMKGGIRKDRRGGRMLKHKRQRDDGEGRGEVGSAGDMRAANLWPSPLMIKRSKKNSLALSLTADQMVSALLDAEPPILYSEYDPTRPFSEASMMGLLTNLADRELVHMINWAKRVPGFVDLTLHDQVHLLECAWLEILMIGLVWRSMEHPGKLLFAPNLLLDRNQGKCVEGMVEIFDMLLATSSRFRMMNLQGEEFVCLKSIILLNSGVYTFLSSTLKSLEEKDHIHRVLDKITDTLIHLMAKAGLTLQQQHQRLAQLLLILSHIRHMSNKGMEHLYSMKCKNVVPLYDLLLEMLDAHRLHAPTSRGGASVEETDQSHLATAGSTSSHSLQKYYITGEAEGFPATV

ERβ = biological target: T5, ERβ (Homo sapiens, UniProt Q92731); assay: Transient transfection luciferase assay with pCI-ERb and ERE-SV40 reporter in HeLa cells, with 100 pM estradiol; conditions: for IC50: HeLa cells, in the presence of 100 pM of estradiol, 24 h; for Antagonistic properties on ERb (in words): transient transfection
T5 construct: expressed in transfected cells; host or cells: HeLa
T5 sequence (Q92731 whole entry, species assumed): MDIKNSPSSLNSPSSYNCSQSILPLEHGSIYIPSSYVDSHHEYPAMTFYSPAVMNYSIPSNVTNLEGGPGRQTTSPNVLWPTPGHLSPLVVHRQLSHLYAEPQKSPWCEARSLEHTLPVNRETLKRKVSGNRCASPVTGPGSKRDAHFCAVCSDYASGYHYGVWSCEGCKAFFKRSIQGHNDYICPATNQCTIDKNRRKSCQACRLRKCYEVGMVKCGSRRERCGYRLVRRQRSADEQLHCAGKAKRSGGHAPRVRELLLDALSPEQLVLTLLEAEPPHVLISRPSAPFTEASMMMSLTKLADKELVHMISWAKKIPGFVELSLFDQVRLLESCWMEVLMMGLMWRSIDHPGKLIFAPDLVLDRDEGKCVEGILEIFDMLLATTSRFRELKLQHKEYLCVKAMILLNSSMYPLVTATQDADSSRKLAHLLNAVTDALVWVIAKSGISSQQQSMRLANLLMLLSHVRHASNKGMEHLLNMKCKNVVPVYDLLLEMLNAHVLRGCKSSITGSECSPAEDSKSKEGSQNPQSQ

| Antagonism of constitutive activity of ERRα (in words) (human ERRα-1) | IC50 (human ERRα-1) [µM] | IC50 (ERRβ) [µM] | Antagonistic properties on ERRb (in words) (ERRβ) | IC50 (ERRγ) [µM] | Antagonistic properties on ERRg (in words) (ERRγ) | IC50 (ERα) [µM] | Antagonistic properties on ERa (in words) (ERα) | IC50 (ERβ) [µM] | Antagonistic properties on ERb (in words) (ERβ) | Structure (SMILES) | Rank of potency as antagonist of ERRα among the chalcones (human ERRα-1) |
| --- | --- | --- | --- | --- | --- | --- | --- | --- | --- | --- | --- |
| antagonists of ERRα | 5.7 ± 1.8 | 3.5 | showed antagonistic properties | 8 | showed antagonistic properties | 3.3 | showed antagonistic properties | 4.6 | showed antagonistic properties | COc1cccc(/C=C/C(=O)c2ccc(O)cc2O)c1OC [Compound No. 1-9, 2′,4′-Dihydroxy-2,3-dimethoxychalcone] | most potent antagonist among these chalcones; also recorded: more potent antagonist of ERRα among these seven chalcones |
| antagonists of ERRα | 6.2 ± 1 | 6.7 | showed antagonistic properties | 3.7 | showed antagonistic properties | 3.7 | showed antagonistic properties | 7.4 | showed antagonistic properties | O=C(/C=C/c1ccccc1O)c1ccc(O)cc1O [Compound No. 7-5, 2,2′,4′-Trihydroxychalcone] | more potent antagonist of ERRα among these seven chalcones |
